The record followed here is patent US20220105081A1 (priority 2020, published 2022).

Entries after “also recorded” stand apart in the source; their conditions may differ.

Data set [1] addresses T1, CHRM1 (Cholinergic Muscarinic Receptor 1) (Homo sapiens, UniProt P11229).
T1 sequence (P11229 1-460): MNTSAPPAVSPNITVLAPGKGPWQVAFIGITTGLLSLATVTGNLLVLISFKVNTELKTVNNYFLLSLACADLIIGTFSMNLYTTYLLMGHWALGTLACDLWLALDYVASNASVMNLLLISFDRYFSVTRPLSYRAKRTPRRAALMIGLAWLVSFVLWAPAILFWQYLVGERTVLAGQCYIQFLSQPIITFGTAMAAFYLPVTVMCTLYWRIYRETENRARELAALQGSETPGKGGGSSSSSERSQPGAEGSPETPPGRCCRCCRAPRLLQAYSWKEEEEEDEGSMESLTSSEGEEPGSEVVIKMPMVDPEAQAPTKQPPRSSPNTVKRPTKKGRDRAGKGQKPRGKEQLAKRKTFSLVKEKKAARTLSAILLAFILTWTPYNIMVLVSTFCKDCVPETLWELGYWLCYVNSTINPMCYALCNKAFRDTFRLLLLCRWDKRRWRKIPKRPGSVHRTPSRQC
Put plainly: DiscoverX GPCR Max Panel screen. Particulars: VDM-001 at 30 μM; Assay Mode Antagonist. It counts as cell-based. The procedure: (§1) In Example 2, DiscoverX platform screening (GPCR Max Panel) of VDM-001(composition of formula I)) at a concentration of 30 μM (the IC50 for VDM-001 from the GTPgS studies) was conducted to confirm the data from the GTPgS study and to determine broad selectivity of over 336 protein targets. MOR antagonism was confirmed (87% activity) along with other targets with >50%. Overall 13 proteins were engaged by VDM-001 with greater than 50% activity.

Data set [2] deals with T2, HTR1A (Serotonin 1A receptor) (Homo sapiens, UniProt P08908).
T2 sequence (P08908 1-422): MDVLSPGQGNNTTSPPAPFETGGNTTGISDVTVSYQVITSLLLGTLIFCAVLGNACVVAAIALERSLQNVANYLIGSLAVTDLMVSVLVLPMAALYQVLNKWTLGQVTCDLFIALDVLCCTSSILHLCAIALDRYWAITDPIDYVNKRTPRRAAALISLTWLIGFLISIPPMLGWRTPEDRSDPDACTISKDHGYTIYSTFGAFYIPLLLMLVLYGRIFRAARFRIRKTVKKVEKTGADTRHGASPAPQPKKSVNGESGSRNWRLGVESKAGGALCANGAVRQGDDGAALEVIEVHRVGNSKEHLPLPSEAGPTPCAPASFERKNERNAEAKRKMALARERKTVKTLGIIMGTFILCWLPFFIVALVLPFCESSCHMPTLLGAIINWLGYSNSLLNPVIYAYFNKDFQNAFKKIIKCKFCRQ
Put plainly: DiscoverX GPCR Max Panel screen. The class given is cell-based. Particulars: VDM-001 at 30 μM; Assay Mode Antagonist. On the procedure: as §1

In data set [3] the target is T3, ADRA1B (Alpha 1B adrenergic receptor) (Homo sapiens, UniProt P35368).
T3 sequence (P35368 1-520): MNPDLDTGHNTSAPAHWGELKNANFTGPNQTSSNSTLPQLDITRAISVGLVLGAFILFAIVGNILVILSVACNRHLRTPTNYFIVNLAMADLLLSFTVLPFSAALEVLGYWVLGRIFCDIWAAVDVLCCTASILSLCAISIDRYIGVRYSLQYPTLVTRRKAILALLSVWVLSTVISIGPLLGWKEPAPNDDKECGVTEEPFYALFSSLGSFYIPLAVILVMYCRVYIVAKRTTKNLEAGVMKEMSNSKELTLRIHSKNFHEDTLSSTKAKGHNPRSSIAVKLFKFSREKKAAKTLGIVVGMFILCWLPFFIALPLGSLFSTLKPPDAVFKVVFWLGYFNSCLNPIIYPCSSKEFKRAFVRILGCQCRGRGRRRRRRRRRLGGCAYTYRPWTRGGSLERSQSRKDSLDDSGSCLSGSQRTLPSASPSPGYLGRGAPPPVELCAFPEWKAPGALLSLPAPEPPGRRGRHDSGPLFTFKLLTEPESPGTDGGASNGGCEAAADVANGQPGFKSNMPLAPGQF
Put plainly: DiscoverX GPCR Max Panel screen. The class given is cell-based. Particulars: VDM-001 at 30 μM; Assay Mode Antagonist. On the procedure: as §1

Data set [4] addresses CHRM3 (Cholinergic Muscarinic Receptor 3) (Homo sapiens, UniProt P20309). Put plainly: DiscoverX GPCR Max Panel screen. Particulars: VDM-001 at 30 μM; Assay Mode Antagonist. It counts as cell-based. On the procedure:
as §1

Data set [5] has as its target T4, CHRM4 (Cholinergic Muscarinic Receptor 4) (Homo sapiens, UniProt P08173).
T4 sequence (P08173 1-479): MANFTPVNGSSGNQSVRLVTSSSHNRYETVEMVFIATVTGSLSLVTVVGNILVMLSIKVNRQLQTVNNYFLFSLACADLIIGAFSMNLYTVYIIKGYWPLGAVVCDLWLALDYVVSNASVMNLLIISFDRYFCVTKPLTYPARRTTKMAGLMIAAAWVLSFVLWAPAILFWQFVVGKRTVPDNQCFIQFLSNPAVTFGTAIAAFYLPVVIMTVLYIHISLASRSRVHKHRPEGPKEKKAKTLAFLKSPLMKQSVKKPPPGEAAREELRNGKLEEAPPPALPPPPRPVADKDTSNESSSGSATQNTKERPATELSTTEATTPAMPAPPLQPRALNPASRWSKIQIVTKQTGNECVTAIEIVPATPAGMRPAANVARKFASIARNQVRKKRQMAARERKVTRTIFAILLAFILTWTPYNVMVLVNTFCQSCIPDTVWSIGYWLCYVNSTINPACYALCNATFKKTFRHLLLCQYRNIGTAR
Put plainly: DiscoverX GPCR Max Panel screen. Particulars: VDM-001 at 30 μM; Assay Mode Antagonist. The class given is cell-based. On the procedure: as §1

For data set [6], the target named is T5, CHRM5 (Cholinergic Muscarinic Receptor 5) (Homo sapiens, UniProt P08912).
T5 sequence (P08912 1-532): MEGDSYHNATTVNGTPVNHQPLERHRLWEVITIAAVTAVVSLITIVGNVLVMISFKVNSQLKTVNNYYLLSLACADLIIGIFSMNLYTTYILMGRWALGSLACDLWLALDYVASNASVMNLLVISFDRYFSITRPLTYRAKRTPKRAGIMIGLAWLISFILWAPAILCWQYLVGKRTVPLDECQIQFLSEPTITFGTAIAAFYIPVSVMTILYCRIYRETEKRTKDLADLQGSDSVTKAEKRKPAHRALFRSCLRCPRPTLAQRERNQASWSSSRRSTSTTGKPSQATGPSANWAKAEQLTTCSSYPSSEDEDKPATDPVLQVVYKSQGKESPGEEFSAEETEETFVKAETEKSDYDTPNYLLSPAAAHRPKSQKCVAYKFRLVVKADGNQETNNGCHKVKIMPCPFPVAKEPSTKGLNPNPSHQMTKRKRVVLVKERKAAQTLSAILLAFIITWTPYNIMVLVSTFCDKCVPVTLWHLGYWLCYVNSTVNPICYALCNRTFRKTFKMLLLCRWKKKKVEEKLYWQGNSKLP
In words: DiscoverX GPCR Max Panel screen. Particulars: VDM-001 at 30 μM; Assay Mode Antagonist. The class given is cell-based. On the procedure:
as §1

The target of data set [7] is HRH1 (Histamine H1 receptor) (Homo sapiens, UniProt P35367). In words: DiscoverX GPCR Max Panel screen. Particulars: VDM-001 at 30 μM; Assay Mode Antagonist. The class given is cell-based. On the procedure: as §1
HRH1 (Histamine H1 receptor), sequence (P35367 whole entry): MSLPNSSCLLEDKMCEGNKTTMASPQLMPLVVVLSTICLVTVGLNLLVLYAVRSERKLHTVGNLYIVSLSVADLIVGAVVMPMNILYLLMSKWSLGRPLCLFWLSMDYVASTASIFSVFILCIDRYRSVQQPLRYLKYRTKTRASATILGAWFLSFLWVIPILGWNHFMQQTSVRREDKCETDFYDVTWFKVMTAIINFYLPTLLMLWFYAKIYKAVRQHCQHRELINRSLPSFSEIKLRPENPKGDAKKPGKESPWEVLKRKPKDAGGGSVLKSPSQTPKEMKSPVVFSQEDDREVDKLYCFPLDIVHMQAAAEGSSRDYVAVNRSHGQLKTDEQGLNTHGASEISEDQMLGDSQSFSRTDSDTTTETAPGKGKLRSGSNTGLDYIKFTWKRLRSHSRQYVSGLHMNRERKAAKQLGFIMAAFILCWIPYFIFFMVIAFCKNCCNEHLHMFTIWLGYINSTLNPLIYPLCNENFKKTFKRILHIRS
Data set [8] deals with T6, ADRA2C (Adrenergic receptor alpha 2C) (Homo sapiens, UniProt P18825).
T6 sequence (P18825 1-462): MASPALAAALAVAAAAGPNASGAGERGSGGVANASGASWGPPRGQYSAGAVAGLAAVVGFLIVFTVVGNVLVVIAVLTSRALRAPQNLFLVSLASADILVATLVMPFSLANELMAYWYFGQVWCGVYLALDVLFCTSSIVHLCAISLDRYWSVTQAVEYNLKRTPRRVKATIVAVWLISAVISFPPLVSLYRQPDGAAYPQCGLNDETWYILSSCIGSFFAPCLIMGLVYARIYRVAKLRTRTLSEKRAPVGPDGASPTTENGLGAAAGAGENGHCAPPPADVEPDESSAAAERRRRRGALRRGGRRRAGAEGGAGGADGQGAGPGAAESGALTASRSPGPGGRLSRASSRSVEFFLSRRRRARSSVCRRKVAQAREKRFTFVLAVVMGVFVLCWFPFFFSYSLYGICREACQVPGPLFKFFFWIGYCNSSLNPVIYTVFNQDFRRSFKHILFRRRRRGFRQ
In words: DiscoverX GPCR Max Panel screen. Particulars: VDM-001 at 30 μM; Assay Mode Antagonist. The class given is cell-based. On the procedure: as §1

Data set [9] has as its target OPRL1 (Nociceptin 1 receptor) (Homo sapiens, UniProt P41146). Put plainly: DiscoverX GPCR Max Panel screen. The class given is cell-based. Particulars: VDM-001 at 30 μM; Assay Mode Antagonist. On the procedure:
as §1

In data set [10] the target is T7, DRD4 (Dopamine D4 receptor) (Homo sapiens, UniProt P21917).
T7 sequence (P21917 1-419): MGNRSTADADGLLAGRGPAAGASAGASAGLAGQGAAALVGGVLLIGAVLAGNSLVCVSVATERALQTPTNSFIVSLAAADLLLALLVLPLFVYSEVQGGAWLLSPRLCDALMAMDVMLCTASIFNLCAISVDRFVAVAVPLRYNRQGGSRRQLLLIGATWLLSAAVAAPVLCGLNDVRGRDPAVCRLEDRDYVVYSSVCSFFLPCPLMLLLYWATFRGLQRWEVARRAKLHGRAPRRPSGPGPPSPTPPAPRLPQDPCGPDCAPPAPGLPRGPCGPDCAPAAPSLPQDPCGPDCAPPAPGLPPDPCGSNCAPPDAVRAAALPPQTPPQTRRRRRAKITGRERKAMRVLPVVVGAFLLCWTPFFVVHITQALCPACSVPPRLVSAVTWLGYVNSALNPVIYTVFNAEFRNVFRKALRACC
In words: DiscoverX GPCR Max Panel screen. It counts as cell-based. Particulars: VDM-001 at 30 μM; Assay Mode Antagonist. On the procedure:
as §1

The target in data set [11] is OPRM1 (Mu Opiate receptor) (Homo sapiens, UniProt P35372). In words: DiscoverX GPCR Max Panel screen. The class given is cell-based. Particulars: VDM-001 at 30 μM; Assay Mode Antagonist. On the procedure:
as §1

For data set [12], the target named is T8, ADRA2B (Alpha 2B adrenergic receptor) (Homo sapiens, UniProt P18089).
T8 sequence (P18089 1-450): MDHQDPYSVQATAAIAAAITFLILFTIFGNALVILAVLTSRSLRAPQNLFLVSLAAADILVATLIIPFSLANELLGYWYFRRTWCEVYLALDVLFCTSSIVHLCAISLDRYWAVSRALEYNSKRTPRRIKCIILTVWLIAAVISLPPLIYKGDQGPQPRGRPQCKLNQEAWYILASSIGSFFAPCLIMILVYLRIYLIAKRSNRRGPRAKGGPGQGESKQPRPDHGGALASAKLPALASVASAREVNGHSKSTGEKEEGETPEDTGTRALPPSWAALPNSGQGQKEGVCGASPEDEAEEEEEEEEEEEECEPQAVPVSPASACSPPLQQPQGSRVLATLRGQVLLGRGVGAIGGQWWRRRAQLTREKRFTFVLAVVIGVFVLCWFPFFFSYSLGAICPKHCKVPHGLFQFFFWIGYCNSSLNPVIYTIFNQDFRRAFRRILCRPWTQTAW
Put plainly: DiscoverX GPCR Max Panel screen. It counts as cell-based. Particulars: VDM-001 at 30 μM; Assay Mode Antagonist. The procedure:
as §1

In data set [13] the target is HTR1B (Serotonin 1B receptor) (Homo sapiens, UniProt P28222). Put plainly: DiscoverX GPCR Max Panel screen. It counts as cell-based. Particulars: VDM-001 at 30 μM; Assay Mode Antagonist. The procedure:
as §1

In the next data set the target is ORL1 receptors (Homo sapiens, UniProt P41146). In words: Receptor activity profile (stated).
ORL1 receptors, sequence (P41146 whole entry): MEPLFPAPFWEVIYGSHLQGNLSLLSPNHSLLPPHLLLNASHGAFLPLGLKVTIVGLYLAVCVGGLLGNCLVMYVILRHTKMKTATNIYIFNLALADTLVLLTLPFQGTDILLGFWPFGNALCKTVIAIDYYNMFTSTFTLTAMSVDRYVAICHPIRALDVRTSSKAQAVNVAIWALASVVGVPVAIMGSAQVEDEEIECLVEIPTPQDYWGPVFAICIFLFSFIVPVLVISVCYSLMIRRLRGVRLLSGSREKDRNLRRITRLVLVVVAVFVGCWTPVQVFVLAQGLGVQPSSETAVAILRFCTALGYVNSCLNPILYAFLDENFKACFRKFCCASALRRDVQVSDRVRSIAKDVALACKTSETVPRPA
Another data set relates to morphine-dependent rats. Put plainly: Opiate withdrawal signs in morphine-dependent rats.
The target in another data set is mu opioid receptors (Homo sapiens, UniProt P35372). In words: Receptor activity profile (stated).
mu opioid receptors, sequence (P35372 whole entry): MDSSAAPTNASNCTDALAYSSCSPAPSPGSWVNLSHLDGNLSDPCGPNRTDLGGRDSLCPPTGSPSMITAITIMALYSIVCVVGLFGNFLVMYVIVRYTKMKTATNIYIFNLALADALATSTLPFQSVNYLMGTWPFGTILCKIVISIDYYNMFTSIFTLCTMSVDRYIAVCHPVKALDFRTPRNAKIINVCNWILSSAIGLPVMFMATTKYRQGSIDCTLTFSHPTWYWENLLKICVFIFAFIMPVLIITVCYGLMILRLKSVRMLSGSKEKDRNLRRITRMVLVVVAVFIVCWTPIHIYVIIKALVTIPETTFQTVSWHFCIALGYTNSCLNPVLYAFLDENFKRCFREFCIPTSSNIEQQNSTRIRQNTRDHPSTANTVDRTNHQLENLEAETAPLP
For a further data set, the system named is Sigma sites. In words: Receptor activity profile (stated).
The target of a further data set is kappa receptors (Homo sapiens, UniProt P41145). In words: Receptor activity profile (stated).
kappa receptors, sequence (P41145 whole entry): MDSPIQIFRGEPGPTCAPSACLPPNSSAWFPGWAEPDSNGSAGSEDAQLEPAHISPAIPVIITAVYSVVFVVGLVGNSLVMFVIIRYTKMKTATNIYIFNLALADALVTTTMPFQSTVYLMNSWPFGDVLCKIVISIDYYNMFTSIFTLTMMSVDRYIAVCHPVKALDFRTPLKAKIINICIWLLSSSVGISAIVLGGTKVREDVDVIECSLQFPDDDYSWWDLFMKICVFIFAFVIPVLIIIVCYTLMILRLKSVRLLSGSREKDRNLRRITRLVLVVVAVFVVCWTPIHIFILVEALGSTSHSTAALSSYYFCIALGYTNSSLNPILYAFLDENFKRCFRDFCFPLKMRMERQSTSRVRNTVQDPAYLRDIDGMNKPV
The target of the next data set is MOR (Homo sapiens, UniProt P35372). Put plainly: GTPgS studies. It counts as biochemical. Particulars: read-out: IC50 from the GTPgS studies.
MOR, sequence (P35372 whole entry): as the sequence (P35372 whole entry) above

OPRM1 (Mu Opiate receptor), sequence (P35372 whole entry): as above
HTR1B (Serotonin 1B receptor), sequence (P28222 whole entry): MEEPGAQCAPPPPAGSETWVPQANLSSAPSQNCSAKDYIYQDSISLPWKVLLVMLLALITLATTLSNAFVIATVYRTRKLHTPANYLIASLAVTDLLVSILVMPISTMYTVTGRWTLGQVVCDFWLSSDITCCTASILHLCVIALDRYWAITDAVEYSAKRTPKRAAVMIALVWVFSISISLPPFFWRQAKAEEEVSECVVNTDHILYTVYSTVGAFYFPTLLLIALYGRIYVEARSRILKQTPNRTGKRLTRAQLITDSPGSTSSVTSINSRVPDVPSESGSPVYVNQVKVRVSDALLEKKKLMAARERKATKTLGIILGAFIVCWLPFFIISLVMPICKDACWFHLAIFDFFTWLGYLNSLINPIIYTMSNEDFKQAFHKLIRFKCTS
CHRM3 (Cholinergic Muscarinic Receptor 3), sequence (P20309 whole entry): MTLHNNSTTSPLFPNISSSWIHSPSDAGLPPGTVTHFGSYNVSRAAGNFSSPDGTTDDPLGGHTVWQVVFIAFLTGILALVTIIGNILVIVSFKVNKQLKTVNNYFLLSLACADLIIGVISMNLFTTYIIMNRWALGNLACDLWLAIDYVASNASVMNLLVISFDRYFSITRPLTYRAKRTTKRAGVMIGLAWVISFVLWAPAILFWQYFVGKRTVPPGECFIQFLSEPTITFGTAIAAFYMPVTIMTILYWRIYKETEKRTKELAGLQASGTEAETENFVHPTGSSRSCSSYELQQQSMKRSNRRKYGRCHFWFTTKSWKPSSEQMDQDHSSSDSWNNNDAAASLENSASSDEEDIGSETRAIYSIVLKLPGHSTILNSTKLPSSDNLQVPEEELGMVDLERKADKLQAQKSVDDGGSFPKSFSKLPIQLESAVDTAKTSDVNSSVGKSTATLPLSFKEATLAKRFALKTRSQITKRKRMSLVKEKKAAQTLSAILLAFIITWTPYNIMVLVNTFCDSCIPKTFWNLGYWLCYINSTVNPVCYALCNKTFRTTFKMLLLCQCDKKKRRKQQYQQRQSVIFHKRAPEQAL
OPRL1 (Nociceptin 1 receptor), sequence (P41146 whole entry): as the sequence (P41146 whole entry) above

A word on the IC50: it is the point on the concentration scale where inhibition reaches its midpoint. Take `CCC(=O)NC1CC(C)N(CCc2ccccc2)CC1C` (stereo not drawn) [VDM-001, N-[2,5-dimethyl-1-(2-phenylethyl)piperidin-4-yl]propanamide]: the Activity is reported as 72% in data set [1]; 73% in [2]; 84% in data set [3]; 85% in data set [4]; 72% in data set [5]; 74% in [6]. In addition, the Activity in [7] worked out at 99%; in [8], 104%; in [9], 54%; in data set [10], 75%; in data set [11], 87%; in [12], 98%. The molecule further gave an Activity in data set [13] of 60%. Also, at ORL1 receptors, the “mode of action at ORL1 receptors” value is “antagonist”. In addition, the incidence of diarrhea entry is “around 1%” with morphine-dependent rats (20 mg/kg, equal to the control) and “less than 20%” with morphine-dependent rats (40 mg/kg). Besides, the opiate withdrawal signs result in the data set on morphine-dependent rats (20 or 40 mg/kg) is “minimal, if any, opiate withdrawal signs; also recorded: did not precipitate morphine withdrawal symptoms; also recorded: did not show significant withdrawal signs”. Further, on mu opioid receptors, the “mode of action at mu opioid receptors” value is listed as “partial agonist”. In addition, the “mode of action at Sigma sites” value with Sigma sites is recorded as “either agonist or antagonist activity”. Besides, the “mode of action at kappa receptors” value on kappa receptors is listed as “antagonist”. The IC50 at MOR was 30 µM.
As to `C=CCN1CC[C@]23c4c5ccc(O)c4O[C@H]2C(=O)CC[C@@]3(O)[C@H]1C5` [naloxone, 17-allyl-4,5a-epoxy-3,14-dihydroxymorphinan-6-one, reference compound], in the data set on morphine-dependent rats (1 mg/kg), the incidence of diarrhea entry was “over 80%” and the opiate withdrawal signs result is listed as “large opiate withdrawal signs”. Moreover, in the data set on morphine-dependent rats (1 mg/kg, listed as Naloxone), the opiate withdrawal signs result was “precipitated a large number of withdrawal signs”.
